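Dose response: 5 concentrations. Exposure: 48 h. Format: 96-well plates. Endpoint: linear interpolation; highest concentration if not reached. GI50 is the concentration that inhibits growth by half.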 Active and inactive are the calls of the source. Rule as the data show it: active = GI50 up to about 1.1 µM and inactive = higher. Non-standard residues stand in square brackets, D forms with d. Residues, ends and D or L forms follow the SMILES beside them. *: point of attachment. NMeF = CN[CH](Cc1ccccc1)C(=O)O; NMeV = CN[CH](C(=O)O)C(C)C; Boc = CC(C)(C)OC(=O)*
What was measured:
Experiment in all cases: growth of human tumour cells (NCI), 48 h
HCT-15 = system: HCT-15
SNB-19 = system: SNB-19
SNB-75 = system: SNB-75
OVCAR-8 = system: OVCAR-8
NCI-H522 = system: NCI-H522
U-251 = system: U-251
ACHN = system: ACHN
TK-10 = system: TK-10
K562 = system: K562
NCI-H23 = system: NCI-H23
OVCAR-5 = system: OVCAR-5
SF-295 = system: SF-295
SN12C = system: SN12C
786-0 = system: 786-0
SK-MEL-5 = system: SK-MEL-5
HOP-62 = system: HOP-62
SR = system: SR
HOP-92 = system: HOP-92

| Structure (SMILES) | GI50 (HCT-15) [µM] | GI50 (SNB-19) | GI50 (SNB-75) | GI50 (OVCAR-8) | GI50 (NCI-H522) | GI50 (U-251) | GI50 (ACHN) | GI50 (TK-10) | GI50 (K562) | GI50 (NCI-H23) | GI50 (OVCAR-5) | GI50 (SF-295) | GI50 (SN12C) | GI50 (786-0) | GI50 (SK-MEL-5) | GI50 (HOP-62) | GI50 (SR) | GI50 (HOP-92) |
| --- | --- | --- | --- | --- | --- | --- | --- | --- | --- | --- | --- | --- | --- | --- | --- | --- | --- | --- |
| Cc1ccccc1-n1c(N)c(-c2nc3ccccc3[nH]2)sc1=S | 34.7 | 24.9 µM (inactive) | 29.4 µM (inactive) | 32.8 µM (inactive) | 21.3 µM (inactive) | > 10 µM (inactive) | 35 µM (inactive) | 39.3 µM (inactive) | 36.6 µM (inactive) | 23.3 µM (inactive) | 37 µM (inactive) | 22.6 µM (inactive) | 26.4 µM (inactive) | 30.1 µM (inactive) | 20.8 µM (inactive) | 25 µM (inactive) | – | – |
| CN(C)c1ccccc1CC(c1c[nH]c2ccccc12)c1c[nH]c2ccccc12 | 12.2 | 14.4 µM (inactive) | 10.3 µM (inactive) | 11.2 µM (inactive) | 12.9 µM (inactive) | 12.1 µM (inactive) | 8.36 µM (inactive) | 16.2 µM (inactive) | 10.7 µM (inactive) | 6.85 µM (inactive) | 16.9 µM (inactive) | 11.9 µM (inactive) | 3.1 µM (inactive) | 12.8 µM (inactive) | 15.3 µM (inactive) | 6.62 µM (inactive) | 5.46 µM (inactive) | – |
| COc1cc(C2C(Cl)C(=O)N2NC(=O)c2ccc(NC(C)=O)cc2)ccc1O (stereo unspecified) | > 100 | > 100 µM (inactive) | – | > 100 µM (inactive) | > 100 µM (inactive) | > 100 µM (inactive) | > 100 µM (inactive) | > 100 µM (inactive) | > 100 µM (inactive) | > 100 µM (inactive) | > 100 µM (inactive) | > 100 µM (inactive) | > 100 µM (inactive) | > 100 µM (inactive) | > 100 µM (inactive) | > 100 µM (inactive) | – | > 100 µM (inactive) |
| COc1ccc(OC)c(/C(C)=N/NC(N)=S)c1 | > 100 | – | > 100 µM (inactive) | > 100 µM (inactive) | – | > 100 µM (inactive) | > 100 µM (inactive) | > 100 µM (inactive) | > 100 µM (inactive) | > 100 µM (inactive) | > 100 µM (inactive) | > 100 µM (inactive) | > 100 µM (inactive) | > 100 µM (inactive) | > 100 µM (inactive) | > 100 µM (inactive) | > 100 µM (inactive) | > 100 µM (inactive) |
| C=C1C(=O)OC2C1CC[C@H](C)C13OC(=O)CC1[C@@]23C (stereo partly specified) | – | > 100 µM (inactive) | > 100 µM (inactive) | > 100 µM (inactive) | 48.3 µM (inactive) | > 100 µM (inactive) | > 100 µM (inactive) | > 100 µM (inactive) | > 100 µM (inactive) | > 100 µM (inactive) | > 100 µM (inactive) | > 100 µM (inactive) | > 100 µM (inactive) | > 100 µM (inactive) | > 100 µM (inactive) | – | > 100 µM (inactive) | > 100 µM (inactive) |
| Cc1ccc(NC(=O)C(=O)CC(=O)c2ccccc2)cc1C | 37.2 | > 100 µM (inactive) | > 100 µM (inactive) | > 100 µM (inactive) | 98.9 µM (inactive) | > 100 µM (inactive) | > 100 µM (inactive) | > 100 µM (inactive) | – | > 100 µM (inactive) | > 100 µM (inactive) | > 100 µM (inactive) | > 100 µM (inactive) | > 100 µM (inactive) | > 100 µM (inactive) | > 100 µM (inactive) | – | > 100 µM (inactive) |
| c1cc2ccc1C1NCCCN1CCN1CCCNC1c1ccc(cc1)C1NCCCN1CCN1CCCNC21 (stereo unspecified) | 61.8 | > 100 µM (inactive) | > 100 µM (inactive) | > 100 µM (inactive) | 23.1 µM (inactive) | 54.2 µM (inactive) | > 100 µM (inactive) | > 100 µM (inactive) | 37 µM (inactive) | > 100 µM (inactive) | > 100 µM (inactive) | > 100 µM (inactive) | > 100 µM (inactive) | > 100 µM (inactive) | > 100 µM (inactive) | > 100 µM (inactive) | – | > 100 µM (inactive) |
| N#CCC(=O)N1CCCOCCC1 | 17.9 | > 100 µM (inactive) | – | – | – | > 100 µM (inactive) | > 100 µM (inactive) | > 100 µM (inactive) | > 100 µM (inactive) | > 100 µM (inactive) | > 100 µM (inactive) | > 100 µM (inactive) | > 100 µM (inactive) | > 100 µM (inactive) | > 100 µM (inactive) | > 100 µM (inactive) | – | – |
| O=C(NCCCCNc1cccccc1=O)OCc1ccccc1 | > 100 | > 100 µM (inactive) | > 100 µM (inactive) | 54 µM (inactive) | > 100 µM (inactive) | > 100 µM (inactive) | > 100 µM (inactive) | > 100 µM (inactive) | > 100 µM (inactive) | > 100 µM (inactive) | > 100 µM (inactive) | > 100 µM (inactive) | > 100 µM (inactive) | > 100 µM (inactive) | 48.1 µM (inactive) | > 100 µM (inactive) | – | – |
| CCC1C(C)c2c([nH]c3ccccc23)C2C(=O)N(c3ccccc3)C(=O)C21 (stereo unspecified) | 13.6 | – | 11.4 µM (inactive) | 14.5 µM (inactive) | – | 14.6 µM (inactive) | 18.2 µM (inactive) | 31.3 µM (inactive) | 12.6 µM (inactive) | 18.6 µM (inactive) | – | 15.1 µM (inactive) | 13.5 µM (inactive) | 16.9 µM (inactive) | 15.4 µM (inactive) | – | 8.41 µM (inactive) | – |
| CC(=O)C1(O)CC2(c3ccccc3)C(=O)C1(c1ccccc1)C(c1ccccc1)=C2c1ccccc1 (stereo unspecified) | > 100 | > 100 µM (inactive) | 38.7 µM (inactive) | > 100 µM (inactive) | 66.8 µM (inactive) | 81.3 µM (inactive) | – | > 100 µM (inactive) | 26.1 µM (inactive) | 36.6 µM (inactive) | 49.1 µM (inactive) | 33.4 µM (inactive) | > 100 µM (inactive) | > 100 µM (inactive) | 44 µM (inactive) | > 100 µM (inactive) | 85.1 µM (inactive) | 80.9 µM (inactive) |
| COC(=O)C1CC2c3c(c4ccccc4n3C)CC(C1=O)N2C (stereo unspecified) | 22.3 | 75.9 µM (inactive) | 31.5 µM (inactive) | 34.5 µM (inactive) | 17.3 µM (inactive) | 49.8 µM (inactive) | 35.7 µM (inactive) | 40.2 µM (inactive) | 40.1 µM (inactive) | 50.8 µM (inactive) | > 100 µM (inactive) | > 100 µM (inactive) | 67.8 µM (inactive) | 47.5 µM (inactive) | 25.1 µM (inactive) | – | 27.5 µM (inactive) | 74.3 µM (inactive) |
| CCOC(=O)c1c(-c2[nH]c(C(=O)OCc3ccccc3)c(C)c2C(=O)OCC)[nH]c(C(=O)OCc2ccccc2)c1C | > 100 | – | 29 µM (inactive) | > 100 µM (inactive) | > 100 µM (inactive) | 36 µM (inactive) | 58.2 µM (inactive) | > 100 µM (inactive) | – | – | > 100 µM (inactive) | > 100 µM (inactive) | > 100 µM (inactive) | 92 µM (inactive) | > 100 µM (inactive) | > 100 µM (inactive) | > 100 µM (inactive) | 55.2 µM (inactive) |
| C#Cc1c(C)c(/C=C/C(C)=C/C(=O)OC)n(C)c1C | 95.3 | > 100 µM (inactive) | – | 71.9 µM (inactive) | 71.8 µM (inactive) | > 100 µM (inactive) | 43.7 µM (inactive) | > 100 µM (inactive) | 24.2 µM (inactive) | > 100 µM (inactive) | > 100 µM (inactive) | > 100 µM (inactive) | > 100 µM (inactive) | > 100 µM (inactive) | – | > 100 µM (inactive) | – | 25 µM (inactive) |
| CC1=CC(=O)N2C(OC[C@@H]2c2ccccc2)O1 (stereo partly specified) | > 100 | > 100 µM (inactive) | > 100 µM (inactive) | > 100 µM (inactive) | > 100 µM (inactive) | > 100 µM (inactive) | > 100 µM (inactive) | > 100 µM (inactive) | > 100 µM (inactive) | > 100 µM (inactive) | – | > 100 µM (inactive) | > 100 µM (inactive) | > 100 µM (inactive) | > 100 µM (inactive) | > 100 µM (inactive) | > 100 µM (inactive) | > 100 µM (inactive) |
| N=C1CSC2=NC3=C(CCC/C3=C\c3ccccc3)C(c3ccccc3)N12 (stereo unspecified) | – | 5.94 µM (inactive) | 10.6 µM (inactive) | 5.92 µM (inactive) | 2.61 µM (inactive) | 3.42 µM (inactive) | 11.9 µM (inactive) | 5.28 µM (inactive) | 3.21 µM (inactive) | 3.93 µM (inactive) | 6.53 µM (inactive) | 5.85 µM (inactive) | 11.5 µM (inactive) | 5.65 µM (inactive) | 6.31 µM (inactive) | 11 µM (inactive) | – | – |
| COc1ccc(-c2cc(=O)c3cc(O)ccc3o2)c(OC)c1OC | 31.8 | 47.4 µM (inactive) | 23.1 µM (inactive) | – | 18.2 µM (inactive) | – | 19.5 µM (inactive) | 39.4 µM (inactive) | 24.8 µM (inactive) | 36.8 µM (inactive) | 20.2 µM (inactive) | 24.7 µM (inactive) | 32.6 µM (inactive) | 29 µM (inactive) | – | 42.7 µM (inactive) | 12.7 µM (inactive) | 32.4 µM (inactive) |
| CC(C)C(NC(=O)OC(C)(C)C)C(=O)N(C)C(Cc1ccccc1)C(=O)N(C)C(C(=O)O)C(C)C (stereo not drawn) (Boc-Val-[NMeF]-[NMeV]-OH; configuration not given here) | > 100 | > 100 µM (inactive) | – | > 100 µM (inactive) | 71.1 µM (inactive) | > 100 µM (inactive) | – | > 100 µM (inactive) | > 100 µM (inactive) | > 100 µM (inactive) | – | > 100 µM (inactive) | > 100 µM (inactive) | > 100 µM (inactive) | > 100 µM (inactive) | > 100 µM (inactive) | > 100 µM (inactive) | – |

Reference: ChEMBL document CHEMBL1201862, “PubChem BioAssay data set” (2004)
